Test results: patent publication US20080261911A1, “Uses of diphenyl/diphenylamine carboxylic acids” (priority 2006, published 2008)
Entries after “also recorded” stand apart in the source; their conditions may differ. Marks after values point to notes of the source that are not given here.

What was measured:
[1] = system: VEGF protein; experiment: VEGF protein expression in Panc-1 cells, Western blot; type: cell-based; details: 50 μM, 48 hr, compared to DMSO
Procedure: Cells are washed once with phosphate buffered saline PBS and collected by scraping in 200 μL of lysis buffer [50 mM HEPES, 0.5M sodium chloride, 1.5 mM magnesium chloride, 1 mM EGTA, 10% (v/v) glycerol, 1% Triton X-100, 5 μL/ml of Protease Inhibitor Cocktail (Sigma)]. The lysates from the cells are incubated on ice for 1 hr with intermittent vortexing followed by centrifugation at 40,000 g for 10 min at 4° C. Equal amounts of protein (60 μg) from each treatment group are diluted with loading buffer, boiled and loaded onto 10 and 12.5% SDS-polyacrylamide gel. For vascular endothelial growth factor immunoblots, 100 μg of protein are used. Samples are electrophoresed, transferred to membranes, and proteins detected by incubation with polyclonal primary antibodies Sp1, Sp3, Sp4, HDAC, VEGF (a-20), c-Met, surviving, VEGF, cleaved PARP, and β-tubulin (H-235) followed by blotting with appropriate horseradish peroxidase-conjugated secondary antibody as previously described (Abdelrahim et al, 2004). After autoradiography, band intensities are determined by a scanning laser densitometer (Sharp Electronics Corporation, Mahwah, N.J.) using ZERO-D SCANALYTICS software (Scanalytics Corporation, Billerica, Mass.).

[2] = system: VEGF mRNA; experiment: VEGF mRNA levels in Panc-1 cells, semi-quantitative RT-PCR; type: cell-based
[3] = system: Sp1, Sp3, and Sp4 proteins; experiment: Western blot of Sp1, Sp3 and Sp4 protein expression in Panc-1 cells; type: cell-based; details: for Sp1, Sp3, and Sp4 protein expression: Western blot, vs DMSO
[4] = system: VEGF promoter constructs pVEGF1 and pVEGF2; experiment: VEGF promoter (pVEGF1/pVEGF2) luciferase transactivation in Panc-1 cells; type: cell-based; details: Panc-1 cells; for transactivation of pVEGF2, concentration dependence: 20-80 μM
Procedure: Transfection of Panc-1 cells with pVEGF1 and pVEGF2 and treatment with 50 μM ampiroxicam and tolfenamic acid (FIGS. 2A, 2B) or diclofenac sodium (FIGS. 2C, 2D) with pVEGF1 or pVEGF2 constructs. Cells were transfected with pVEGF1 or pVEGF2 treated with DMSO, 50 μM ampiroxicam, tolfenamic acid, or diclofenac sodium, and luciferase activity determined. Transfection of L3.6pl cells with pVEGF1 (FIG. 2E) or pVEGF2 constructs (FIG. 2F). […] Panc-1 cells were transfected with pVEGF2, treated with 20, 40, 60 or 80 μM ampiroxicam or tolfenamic acid, and luciferase determined. Results presented herein are means ±SE for three separate determinations per treatment group, and significant (p<0.05) decrease in luciferase activity is indicated by an asterisk.
Cells are cultured in 6-well plates in 2 ml of DME/F12 medium supplemented with 5% fetal bovine serum. After 16-20 hr when cells are 50-60% confluent, reporter gene constructs are transfected using LIPOFECTAMINE™ reagent (Invitrogen, Carlsbad, Calif.). The effects of the selective non-steroidal anti-inflammatory drugs on transactivation are investigated in Panc1 and L3.6pl cells co-transfected with different VEGF constructs (500 ng). […] For proteasome inhibitor experiments, cells will be co-treated with 2 μM lactacystin, and for electrophoretic mobility shift assay (EMSA), nuclear extracts from Panc1 and L3.6pl cells are isolated as described, and aliquots will be stored at −80° C. until used (Abdelrahim et al, 2004; Abdelrahim et al, 2005).
Previous studies have shown COX-2 inhibitors or small interfering RNAs for Sp proteins decreased vascular endothelial growth factor expression in colon and pancreatic cells (Abdelrahim et al, 2005; Baker et al, 2002; Masferrer et al, 2000; Bouwman et al, 2002). The effects of DMSO, 50 μM tolfenamic acid and 50 μM ampiroxicam on vascular endothelial growth factor expression were initially investigated in Panc-1 cells transfected with the pVEGF1 and pVEGF2 constructs, which contain −2018 to +50 and −131 to +54 VEGF promoter inserts, respectively (FIGS. 2A and 2B).

[5] = system: orthotopically implanted human pancreatic L3.6p1 cancer cells; experiment: Orthotopic pancreatic tumor model in athymic nude mice; details: for Body Weight Median / Incidence Liver metastasis / Pancreatic Tumor Incidence (positive mice/mice injected) / Tumor Volume Median / Tumor Weight Median: thrice weekly oral from day 7, sacrificed day 35
Procedure: Median tumor volumes (FIG. 8A) and weights (FIG. 8B) in athymic nude mice treated orthotopically with L3.6pl cells, and corn oil (control), tolfenamic acid (25 and 50 mg/kg), and gemcitabine (50 mg/kg) were determined. […] Tumors from the various treatment groups were analyzed for Sp1, Sp3, Sp4, and VEGF protein expression by Western blot analysis. […] Immunostaining is shown for VEGF (FIG. 8D), and CD31 (FIG. 8E). Pancreatic tumor sections from animals treated with solvent (control), gemcitabine (50 mg/kg) and tolfenamic acid (25 and 50 mg/kg) were immunostained with VEGF and CD31 antibodies.
Male athymic nude mice (NCI-nu) are purchased from the Animal Production Area of the National Cancer Institute Frederick Cancer Research and Development Center, housed and maintained under specific pathogen-free conditions in accordance with current regulations and standards of the United States Department of Agriculture. Injection of L3.6pl cells (with greater than 90% viability is performed as previously described (Bruns et al, 1999). Seven days after implantation of tumor cells into the pancreas of each mouse, five mice are killed to confirm the presence of tumor lesions.
Mice (10 animals per treatment group) are randomized to receive one of the following treatments: (1) thrice weekly oral administrations of vehicle solution which will serve as a control group; (2) thrice weekly oral administrations of at least three non-steroidal anti-inflammatory drugs at doses of 10, 25, and 50 mg/kg/day; (3) twice weekly intraperitoneal injections of 50, 75, and 100 mg/kg/day gemcitabine alone; and (4) combinations of gemcitabine and non-steroidal anti-inflammatory drugs. Mice are sacrificed on day 35 and body weights measured. Primary tumors in the pancreas are excised, measured, weighed. For immunohistochemistry (IHC) and hematoxylin and eosin (H&E) staining procedures, one part of the tumor tissue is fixed in formalin and embedded in paraffin, and another part is embedded in TISSUE-TEK® O.C.T. compound, rapidly frozen in liquid nitrogen, and stored at −70° C. Visible liver metastases are counted with the aid of a dissecting microscope, and the tissues processed for hematoxylin and eosin staining.
Paraffin-embedded tissues are used for identification of Sp proteins, VEGFR2p27 and vascular endothelial growth factor. Tissue sections ([…] thick) are mounted on positively charged SUPERFROST slides (Fischer Scientific, Co, Houston, Tex.) and dried overnight. Sections are deparaffinized in xylene and treated with a graded series of alcohol [100, 95, and 80% ethanol (v/v) in double distilled H2O] and rehydrated in phosphate buffered saline (pH 7.5). Tissues are treated with pepsin (Biomeda) for 15 min at 37° C. and washed with phosphate buffered saline. A positive reaction is visualized by incubating the slides with stable 3,3′-diaminobenzidine for 10-20 min. Sections are rinsed with distilled water, counterstained with Gill's hematoxylin for 1 min, and mounted with UNIVERSAL MOUNT (Research Genetics). […] Tumor sample lysates are also examined by western blot analysis for the same proteins.
The potential anti-tumorigenic and anti-angiogenic activity of tolfenamic acid against pancreatic tumors was investigated in an orthotopic athymic nude mouse model. L3.6pl cells were used for this study based on their aggressive growth and production of liver metastases (Bruns et al, 1999; Dubois et al, 1998).

[6] = tolfenamic acid 50 mg/kg, p < 0.005 vs controls

## Cc1c(Cl)cccc1Nc1ccccc1C(=O)O [tolfenamic acid]
[1]
  decrease of vascular endothelial growth factor expression (protein): greater than 60%
[2]; 50 μM, 24 hours, compared to DMSO
  decrease of vascular endothelial growth factor mRNA levels: greater than 60%
[2]; actinomycin D alone or with 50 μM tolfenamic acid, up to 4.5 hr
  VEGF mRNA stability: decreased at similar rates
[3]; 50 μM, 48 hr
  decrease in levels of Sp1, Sp3, and Sp4 proteins: greater than 80%
  order of potency for decreased expression of Sp1, Sp3, and Sp4 proteins: tolfenamic acid>diclofenac˜diflunisal
  Sp1, Sp3, and Sp4 protein expression: decreased expression of Sp1, Sp3, and Sp4 proteins; also recorded: induced protein degradation
[4]; 50 μM
  luciferase activity, pVEGF1 and pVEGF2 constructs: significantly decreased activities
[4]
  transactivation of pVEGF2, concentration dependence: concentration-dependent decrease in transactivation
[5]; 25 or 50 mg/kg/d
  median tumor weights and volumes: decreased median tumor weights and volumes
  percent incidence of liver metastasis: decreased the percent incidence of liver metastasis
[5]; at comparable doses
  tumor growth inhibition compared with gemcitabine: more effective than gemcitabine as a tumor growth inhibitor
[5]; compared to tumors from vehicle (corn oil) or gemcitabine-treated animals
  CD31 staining (microvessel density) in tumors: decreased staining
[5]; tolfenamic acid 25 mg/kg
  Body Weight Median: 25 g
  Incidence Liver metastasis: 1/10
  Pancreatic Tumor Incidence (positive mice/mice injected): 10/10
  Tumor Volume Median: 1732.8 mm^3
  Tumor Weight Median: 1.2 g
[5]; tolfenamic acid 50 mg/kg
  Body Weight Median: 24 g
  Incidence Liver metastasis: 1/10
  Pancreatic Tumor Incidence (positive mice/mice injected): 10/10
[5]; [6]
  Tumor Volume Median: 348.8^c mm^3
  Tumor Weight Median: 0.4^c g
[5]; tolfenamic acid 25 and 50 mg/kg
  immunostaining for vascular endothelial growth factor in tumor sections: decreased staining
[5]; tolfenamic acid 25 and 50 mg/kg, gemcitabine 50 mg/kg and solvent as comparison
  VEGFR1 staining of tumor tissue: decreased VEGFR1 expression only in tumors from tolfenamic acid-treated mice
[5]; tolfenamic acid versus corn oil control-treated animals
  expression of Sp1, Sp3, Sp4 and vascular endothelial growth factor in pancreatic tumors, Western blot: significantly decreased expression of Sp1, Sp3, Sp4 and vascular endothelial growth factor

## CCOC(=O)OC(C)OC1=C(C(=O)Nc2ccccn2)N(C)S(=O)(=O)c2ccccc21 (stereo not drawn) [ampiroxicam]
[3]; 50 μM, 48 hr
  Sp1, Sp3, and Sp4 protein expression: had no effect; also recorded: did not affect Sp protein levels
[3]; 150 μM, 48 hr (concentration of comparable growth inhibition)
  Sp protein degradation: only tolfenamic acid induced protein degradation
[4]; 50 μM
  luciferase activity, pVEGF1 and pVEGF2 constructs: but not ampiroxicam, significantly decreased activities
[4]; 50 μM, in presence or absence of lactacystin
  luciferase activity, pVEGF2: did not affect luciferase activity
[4]
  transactivation of pVEGF2, concentration dependence: showed no effect
